{"source": "paper PMC9610999", "about": "“Itraconazole-Induced Increases in Gilteritinib Exposure Are Mediated by CYP3A and OATP1B” (Molecules, 2022)", "target": "T1, human OATP1B1 (SLCO1B1) (Homo sapiens, UniProt Q9Y6L6)", "T1 construct": "expressed in transfected cells; host or cells: HEK293", "T1 sequence (Q9Y6L6 1-691)": "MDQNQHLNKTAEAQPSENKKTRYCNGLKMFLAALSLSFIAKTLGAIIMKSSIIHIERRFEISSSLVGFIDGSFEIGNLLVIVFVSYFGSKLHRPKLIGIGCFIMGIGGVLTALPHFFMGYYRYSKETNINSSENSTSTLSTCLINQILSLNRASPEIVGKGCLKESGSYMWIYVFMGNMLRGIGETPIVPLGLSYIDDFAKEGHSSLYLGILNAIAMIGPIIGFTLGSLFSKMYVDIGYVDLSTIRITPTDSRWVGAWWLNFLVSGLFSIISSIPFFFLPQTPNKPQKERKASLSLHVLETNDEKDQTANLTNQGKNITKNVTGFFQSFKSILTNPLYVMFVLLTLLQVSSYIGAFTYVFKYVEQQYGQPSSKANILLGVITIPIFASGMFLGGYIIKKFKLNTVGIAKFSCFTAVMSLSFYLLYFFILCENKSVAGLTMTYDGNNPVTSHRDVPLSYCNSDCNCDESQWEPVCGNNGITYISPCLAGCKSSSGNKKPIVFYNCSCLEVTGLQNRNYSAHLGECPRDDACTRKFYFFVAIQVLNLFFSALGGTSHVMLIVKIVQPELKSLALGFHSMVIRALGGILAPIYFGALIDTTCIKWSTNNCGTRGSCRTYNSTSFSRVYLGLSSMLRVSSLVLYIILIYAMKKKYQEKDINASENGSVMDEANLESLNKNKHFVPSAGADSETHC", "assay": "Transport inhibition assay: EβG uptake in OATP1B1 overexpressing HEK293 cells", "assay_type": "cell-based", "protocol": "Human embryonic kidney (HEK293) cells stably transfected with human OATP1B1 (SLCO1B1) cDNA, or an empty control vector were established and cultured as previously described. Cells were maintained in DMEM supplemented with 10% FBS, 50 µg/mL hygromycin B, 15 µg/mL blasticidin, and maintained in a humidified incubator at 37 °C with 5% CO2. Prior to plating, 24-well tissue culture plates (Thermo Fisher Scientific) were coated with poly-d-lysine. Seeding media was prepared using phenol red-free DMEM with 10% FBS with no selection agents. To the seeding media, […] of doxycycline was added to induce expression of OATP1B1.\nOATP1B1 overexpressing cells and vector control cells were plated in 24-well tissue culture plates at a volume of 0.5 mL (containing 2 × 10^6 cells/mL) per well. Plates were returned to an incubator at 37 °C and transport assays were conducted 24 h later. Transport activity was measured using EβG, a prototypical substrate of OATP1B1. Experiments were conducted using phenol red- and serum-free DMEM. Intracellular levels of total radioactivity originating from EβG were assessed by liquid scintillation counting. The resulting counts were normalized to total protein levels as determined by a Pierce protein assay. The influence of gilteritinib, itraconazole, keto-itraconazole, or hydroxy-itraconazole on OATP1B1-mediated transport was assessed following a 15 min pre-incubation at various concentrations of test inhibitors followed by co-incubation of test inhibitors with EβG. Inhibition of transport activity by gilteritinib was determined by comparing the accumulation of EβG in the presence of gilteritinib, itraconazole, keto-itraconazole, or hydroxy-itraconazole to that of EβG in the presence of only the control vehicle, DMSO. The final concentration of DMSO in media was less than 0.2% in all in vitro experiments.", "note": "pIC50, pKi: −log10 of the molar value.", "data": [{"compound": "CCc1nc(C(N)=O)c(Nc2ccc(N3CCC(N4CCN(C)CC4)CC3)c(OC)c2)nc1NC1CCOCC1", "note": "[Gilteritinib]", "values": [{"measurement": "Mechanism of inhibition of OATP1B transport of EβG", "setting": "Dixon plot", "value": "noncompetitively inhibits"}, {"measurement": "pIC50", "setting": "OATP1B1 overexpressing HEK293 cells vs vector control, radiolabeled EβG, 15 min pre-incubation, read-out: IC50, inhibition of OATP1B1-mediated cellular accumulation of EβG", "value": 5.65}, {"measurement": "pKi", "setting": "gilteritinib 0.3–8.3 µM, EβG 0.2, 2, 20 µM, estimated, read-out: Ki (inhibition constant), EβG uptake by OATP1B1, Dixon plot", "value": 5.80}]}]}
